The values below come from ChEMBL document CHEMBL1201862, “PubChem BioAssay data set” (2004).

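Each compound was tested at five concentrations against cells in 96-well plates for 48 hours. Here, GI50 denotes the concentration required for 50% inhibition of growth.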 Active and inactive are the calls of the source. Rule as the data show it: active = GI50 up to about 1.1 µM and inactive = higher.

Common to all, as to experiment: growth of human tumour cells (NCI), 48 h
Assay [1] deals with RPMI-8226.
For assay [2], the system named is OVCAR-8.
Assay [3] concerns SK-MEL-28.
Assay [4] relates to IGROV-1.
The subject of assay [5] is Malme-3M.
The subject of assay [6] is HCC 2998.
Assay [7] relates to M14.
Assay [8] deals with UACC-62.
Assay [9] deals with ACHN.
The subject of assay [10] is SW-620.
For assay [11], the system named is SK-MEL-2.
Assay [12] concerns NCI-H522.
The subject of assay [13] is NCI-H23.
For assay [14], the system named is NCI-H460.
Assay [15] has as its system A549.
For assay [16], the system named is MOLT-4.
Assay [17] concerns OVCAR-5.
Assay [18] concerns HCT-15.
The test system of assay [19] is SR.

For `COc1cc2ccnc3c(=C(SC)SC)c(=O)c(c1OC)c23`, the GI50 in [1] is 3.29 µM (inactive); in [2] it was 10.6 µM (inactive); in [3], 13 µM (inactive); in assay [4], 21 µM (inactive); in assay [5], 11.4 µM (inactive); in [6], 16.4 µM (inactive). Further, the GI50 was 13.9 µM (inactive) in assay [7]; 17.8 µM (inactive) in assay [8]; 12.9 µM (inactive) in [9]; 15.7 µM (inactive) in [10]; 16.2 µM (inactive) in assay [11]; 1.56 µM (inactive) in assay [12]. In addition, the GI50 is > 10 µM (inactive) in assay [13]; 35.3 µM (inactive) in [14]; 42.3 µM (inactive) in [15]; 4.6 µM (inactive) in assay [16]; 20.9 µM (inactive) in assay [17]; 11.9 µM in [18].
With `O=[N+]([O-])c1cc([N+](=O)[O-])c(/C=C/c2ccc(Cl)c(Cl)c2)cc1/C=C/c1ccc(Cl)c(Cl)c1`, the GI50 in [1] was 19.3 µM (inactive); in assay [2], 29.2 µM (inactive); in assay [3], 26.5 µM (inactive); in assay [4] it was 22.9 µM (inactive); in [5], 25.2 µM (inactive); in assay [6], 30.3 µM (inactive). Besides, the GI50 in [7] is 23.1 µM (inactive); in assay [8], 27.5 µM (inactive); in assay [9] it was 22.5 µM (inactive); in assay [10], 28.2 µM (inactive); in assay [11], 24.4 µM (inactive); in assay [12], 21.5 µM (inactive). Besides, the GI50 in assay [13] is 20.4 µM (inactive); in assay [14], 30.4 µM (inactive); in [15], 41.3 µM (inactive); in [16], 23.2 µM (inactive); in assay [17], 36.1 µM (inactive); in assay [18], 21.2 µM.
Turning to `CCOC(=O)C/C(N)=C(\C#N)C(=O)OCC`, the GI50 in assay [1], in assay [2], in [3], in assay [4], in assay [19] and in assay [5] was > 100 µM (inactive) throughout. The GI50 in assay [7], in assay [8], in assay [9], in assay [10], in assay [11] and in [12] was > 100 µM (inactive) in each case. The GI50 in assay [13] was > 100 µM (inactive); in assay [14], > 100 µM (inactive); in assay [15], > 100 µM (inactive); in [16], > 100 µM (inactive); in [17] it was > 100 µM (inactive); in assay [18], over 100 µM.
Take `CCc1cccc(C)c1NS(=O)(=O)c1ccccc1`: the GI50 in [1], in assay [2], in [3], in assay [4], in assay [5] and in assay [6] was > 100 µM (inactive) each time. In addition, the GI50 in assay [7], in [8], in assay [9], in [10], in assay [11] and in assay [13] was > 100 µM (inactive) in each case. For the same compound, the GI50 was > 100 µM (inactive) in assay [14]; > 100 µM (inactive) in assay [15]; > 100 µM (inactive) in assay [16]; > 100 µM (inactive) in assay [17]; over 100 µM in [18].
As for `CN1C/C(=C\C=C\c2ccccc2)C(=O)/C(=C/C=C/c2ccccc2)C1`, the GI50 is > 100 µM (inactive) in [1]; 82.2 µM (inactive) in [2]; > 100 µM (inactive) in assay [3]; > 100 µM (inactive) in assay [4]; > 100 µM (inactive) in assay [5]; > 100 µM (inactive) in assay [6]. Also, the GI50 is > 100 µM (inactive) in assay [7]; > 100 µM (inactive) in [8]; > 100 µM (inactive) in assay [9]; > 100 µM (inactive) in assay [10]; > 100 µM (inactive) in assay [11]; 54 µM (inactive) in [12]. In addition, the GI50 was > 100 µM (inactive) in assay [13]; > 100 µM (inactive) in assay [14]; > 100 µM (inactive) in assay [15]; 40.3 µM (inactive) in assay [16]; > 100 µM (inactive) in [17]; over 100 µM in [18].
Regarding `COc1ccc(C)cc(O)c1=O`, the GI50 in [1] was 39.6 µM (inactive); in [3], 57.4 µM (inactive); in assay [4] it was 39.9 µM (inactive); in assay [19], 5.28 µM (inactive); in assay [5] it was 57.1 µM (inactive); in assay [7], 21.2 µM (inactive). Further, the GI50 was 22.3 µM (inactive) in [8]; 22.8 µM (inactive) in assay [9]; 44 µM (inactive) in assay [10]; 94.8 µM (inactive) in assay [11]; 30.4 µM (inactive) in assay [12]; 40.1 µM (inactive) in assay [13]. The GI50 was 17.7 µM (inactive) in assay [14]; > 100 µM (inactive) in assay [15]; 9.06 µM (inactive) in assay [16]; 68.4 µM (inactive) in assay [17]; over 100 µM in [18].
For the compound `COc1ccc(CC2c3c(cc(OC)c(OC)c3OC)CCN2C)cc1OC` (centres undefined), the GI50 in assay [1], in assay [2], in assay [3], in assay [5], in [6] and in assay [7] was > 100 µM (inactive) throughout. Moreover, the GI50 in assay [9], in assay [10], in assay [11], in [12], in assay [13] and in [14] was > 100 µM (inactive) throughout. The GI50 is > 100 µM (inactive) in assay [15], > 100 µM (inactive) in assay [16], > 100 µM (inactive) in assay [17] and over 100 µM in [18].
`C/C(=N\NC(C)(C)C)c1sc(-c2nc(C)c(/C(C)=N/NC(C)(C)C)s2)nc1C`: the GI50 in assay [1], in assay [2], in assay [3], in [4], in [19] and in assay [5] was > 100 µM (inactive) each time. Besides, the GI50 in [6], in assay [7], in assay [8], in [9], in assay [10] and in assay [12] was > 100 µM (inactive) throughout. The GI50 in [13] was > 100 µM (inactive); in assay [15], > 100 µM (inactive); in assay [16], > 100 µM (inactive); in [18], over 100 µM.
For the compound `COC(=O)c1csnn1`, the GI50 in [1], in assay [2], in assay [3], in [4], in assay [19] and in assay [5] was > 100 µM (inactive) each time. Further, the GI50 in [6], in [7], in assay [8], in assay [9], in assay [10] and in [12] was > 100 µM (inactive) each time. The GI50 is > 100 µM (inactive) in assay [13]; > 100 µM (inactive) in assay [14]; > 100 µM (inactive) in [15]; > 100 µM (inactive) in assay [16]; over 100 µM in assay [18].
Regarding `COc1ccc2nc3cc(Cl)ccc3c(Sc3ccccc3[N+](=O)[O-])c2c1`, the GI50 in [2], in assay [3], in assay [4], in assay [19], in assay [5] and in assay [6] was > 100 µM (inactive) throughout. Also, the GI50 in assay [7], in assay [8], in assay [9], in assay [10], in [11] and in assay [12] was > 100 µM (inactive) throughout. Moreover, the GI50 in assay [13] was > 100 µM (inactive); in assay [14] it was > 100 µM (inactive); in assay [15], > 100 µM (inactive); in assay [16], > 100 µM (inactive); in assay [17], > 100 µM (inactive); in [18], over 100 µM.
For the compound `COc1ccc2c(c1)C(=O)c1ccc(OC)cc1C2=S`, the GI50 in assay [1], in [2], in [3], in assay [4], in [19] and in assay [5] was > 100 µM (inactive) throughout. Besides, the GI50 is > 100 µM (inactive) in assay [6]; > 100 µM (inactive) in assay [7]; 49.1 µM (inactive) in assay [8]; > 100 µM (inactive) in assay [9]; > 100 µM (inactive) in assay [10]; > 100 µM (inactive) in [11]. In addition, the GI50 in [12] is > 100 µM (inactive); in [13] it was > 100 µM (inactive); in [15], > 100 µM (inactive); in assay [16], > 100 µM (inactive); in [17], > 100 µM (inactive); in [18] it was over 100 µM.
As to `Cc1cc(C)c(/C=N/NS(=O)(=O)c2ccccc2)c(C)c1`, the GI50 in assay [1] was 54.5 µM (inactive); in [2], 71.6 µM (inactive); in assay [3] it was > 100 µM (inactive); in assay [4], > 100 µM (inactive); in assay [19], 31.4 µM (inactive); in assay [5] it was > 100 µM (inactive). Also, the GI50 in assay [6], in assay [7], in [8], in assay [9], in assay [10] and in assay [11] was > 100 µM (inactive) in each case. In addition, the GI50 in assay [13] was 54.3 µM (inactive); in assay [14], 59.4 µM (inactive); in assay [15] it was > 100 µM (inactive); in assay [16], 44.7 µM (inactive); in [17], > 100 µM (inactive); in assay [18], over 100 µM.
